In ChEMBL document CHEMBL4477228, “Discovery of 2-((3-cyanopyridin-2-yl)thio)acetamides as human lactate dehydrogenase A inhibitors to reduce the growth of MG-63 osteosarcoma cells: Virtual screening and biological validation” (Bioorg Med Chem Lett, 2016):
Active and inactive are the calls of the source. The rule behind the calls is not given here.

Key:
[1] = molecular target: T1, L-lactate dehydrogenase A chain (Homo sapiens, UniProt P00338); assay: Inhibition of human LDHA assessed as conversion of pyruvate to lactate measuring disappearance of NADH after 10 mins by fluorescence assay
MG-63 [2] = assay: Cytotoxicity of human MG63 cells assessed as cell growth inhibition after 72 hrs by MTT assay; type: functional, cell-based
MG-63 [3] = assay: Induction of apoptosis in human MG63 cells assessed as viable cells at 2 uM after 12 hrs by Annexin V-FITC/propidium iodide staining based flow cytometry (reference value: 95.8 %); type: functional; settings: MG-63, 12 h, read-out: Activity
MG-63 [4] = assay: Induction of apoptosis in human MG63 cells assessed as early apoptotic cells at 2 uM after 12 hrs by Annexin V-FITC/propidium iodide staining based flow cytometry (reference value: 0.4 %); type: functional
MG-63 [5] = assay: Induction of apoptosis in human MG63 cells assessed as late apoptotic cells at 2 uM after 12 hrs by Annexin V-FITC/propidium iodide staining based flow cytometry (reference value: 3.2 %); type: functional
MG-63 [6] = assay: Induction of apoptosis in human MG63 cells assessed as necrotic cells at 2 uM after 12 hrs by Annexin V-FITC/propidium iodide staining based flow cytometry (reference value: 0.5 %); type: functional
MG-63 [7] = assay: Induction of apoptosis in human MG63 cells assessed as viable cells at 5 uM after 12 hrs by Annexin V-FITC/propidium iodide staining based flow cytometry (reference value: 95.8 %); type: functional; settings: MG-63, 12 h, read-out: Activity
MG-63 [8] = assay: Induction of apoptosis in human MG63 cells assessed as early apoptotic cells at 5 uM after 12 hrs by Annexin V-FITC/propidium iodide staining based flow cytometry (reference value: 0.4 %); type: functional
MG-63 [9] = assay: Induction of apoptosis in human MG63 cells assessed as late apoptotic cells at 5 uM after 12 hrs by Annexin V-FITC/propidium iodide staining based flow cytometry (reference value: 3.2 %); type: functional
MG-63 [10] = assay: Induction of apoptosis in human MG63 cells assessed as necrotic cells at 5 uM after 12 hrs by Annexin V-FITC/propidium iodide staining based flow cytometry (reference value: 0.5 %); type: functional
MG-63 [11] = assay: Induction of apoptosis in human MG63 cells assessed as viable cells at 10 uM after 12 hrs by Annexin V-FITC/propidium iodide staining based flow cytometry (reference value: 95.8 %); type: functional; settings: MG-63, 12 h, read-out: Activity
MG-63 [12] = assay: Induction of apoptosis in human MG63 cells assessed as early apoptotic cells at 10 uM after 12 hrs by Annexin V-FITC/propidium iodide staining based flow cytometry (reference value: 0.4 %); type: functional
MG-63 [13] = assay: Induction of apoptosis in human MG63 cells assessed as late apoptotic cells at 10 uM after 12 hrs by Annexin V-FITC/propidium iodide staining based flow cytometry (reference value: 3.2 %); type: functional
MG-63 [14] = assay: Induction of apoptosis in human MG63 cells assessed as necrotic cells at 10 uM after 12 hrs by Annexin V-FITC/propidium iodide staining based flow cytometry (reference value: 0.5 %); type: functional
MG-63 [15] = assay: Induction of apoptosis in human MG63 cells assessed as viable cells at 10 uM after 6 hrs by Annexin V-FITC/propidium iodide staining based flow cytometry (reference value: 95.8 %); type: functional; settings: MG-63, 6 h, read-out: Activity
MG-63 [16] = assay: Induction of apoptosis in human MG63 cells assessed as early apoptotic cells at 10 uM after 6 hrs by Annexin V-FITC/propidium iodide staining based flow cytometry (reference value: 0.4 %); type: functional
MG-63 [17] = assay: Induction of apoptosis in human MG63 cells assessed as late apoptotic cells at 10 uM after 6 hrs by Annexin V-FITC/propidium iodide staining based flow cytometry (reference value: 3.2 %); type: functional
MG-63 [18] = assay: Induction of apoptosis in human MG63 cells assessed as necrotic cells at 10 uM after 6 hrs by Annexin V-FITC/propidium iodide staining based flow cytometry (reference value: 0.5 %); type: functional
MG-63 [19] = assay: Induction of apoptosis in human MG63 cells assessed as viable cells at 10 uM after 24 hrs by Annexin V-FITC/propidium iodide staining based flow cytometry (reference value: 95.8 %); type: functional; settings: MG-63, 24 h, read-out: Activity
MG-63 [20] = assay: Induction of apoptosis in human MG63 cells assessed as early apoptotic cells at 10 uM after 24 hrs by Annexin V-FITC/propidium iodide staining based flow cytometry (reference value: 0.4 %); type: functional
MG-63 [21] = assay: Induction of apoptosis in human MG63 cells assessed as late apoptotic cells at 10 uM after 24 hrs by Annexin V-FITC/propidium iodide staining based flow cytometry (reference value: 3.2 %); type: functional
MG-63 [22] = assay: Induction of apoptosis in human MG63 cells assessed as necrotic cells at 10 uM after 24 hrs by Annexin V-FITC/propidium iodide staining based flow cytometry (reference value: 0.5 %); type: functional
MG-63 [23] = assay: Induction of apoptosis in human MG63 cells after 12 hrs by Annexin V-FITC/propidium iodide staining based flow cytometry; type: functional, cell-based
MG-63 [24] = assay: Induction of apoptosis in human MG63 cells at 10 uM by Annexin V-FITC/propidium iodide staining based flow cytometry; type: functional, cell-based; settings: TDE = time-dependent effect
[25] = molecular target: T1, L-lactate dehydrogenase A chain; assay: Inhibition of human LDHA in MG63 cells assessed as reduction in lactate formation after 12 hrs; type: cell-based
[26] = molecular target: T1, L-lactate dehydrogenase A chain; assay: Inhibition of human LDHA in MG63 cells assessed as reduction in lactate formation at 20 uM after 12 hrs; type: cell-based
[27] = Homo sapiens, MG-63, 72 h, read-out: EC50

SMILES: CCc1ccccc1NC(=O)CSc1nc(-c2ccc(OC)cc2)cc(-c2ccc(OC)cc2)c1C#N
- IC50 [1]: 1.24 µM
- EC50 (MG-63 [2]; [27]): 0.98 µM
- viability at 2 µM (MG-63 [3]): 91%
- Activity (MG-63 [4]): 2%
- Activity (MG-63 [5]): 6.5%
- Activity (MG-63 [6]): 0.4%
- viability at 5 µM (MG-63 [7]): 88.2%
- Activity (MG-63 [8]): 0.7%
- Activity (MG-63 [9]): 10.3%
- Activity (MG-63 [10]): 0.8%
- viability at 10 µM (MG-63 [11]): 82.7%
- Activity (MG-63 [12]): 2.8%
- Activity (MG-63 [13]): 14.1%
- Activity (MG-63 [14]): 0.4%
- viability at 10 µM (MG-63 [15]): 86.1%
- Activity (MG-63 [16]): 5%
- Activity (MG-63 [17]): 8.1%
- Activity (MG-63 [18]): 0.8%
- viability at 10 µM (MG-63 [19]): 73.1%
- Activity (MG-63 [20]): 3.1%
- Activity (MG-63 [21]): 23.5%
- Activity (MG-63 [22]): 0.3%
- Activity (MG-63 [23]): Dose-dependent effect
- Activity (MG-63 [24]): Tde
- inhibition [25]: Dose-dependent effect

SMILES: COc1ccc(-c2cc(-c3ccc(OC)cc3)c(C#N)c(SCC(=O)Nc3ccc(C)c(C)c3)n2)cc1
- IC50 [1]: > 100 µM
- EC50 (MG-63 [2]; mg-63): Not Active

SMILES: COc1ccc(-c2cc(-c3ccc(OC)cc3)c(C#N)c(SCC(=O)Nc3c(C)cccc3C)n2)cc1
- IC50 [1]: 22.5 µM
- EC50 (MG-63 [2]; [27]): 35.4 µM

SMILES: COc1ncc(-c2ccc3c(Nc4cccc(C(=O)O)c4)c(S(N)(=O)=O)cnc3c2)c(OC)n1
- IC50 [1]: 7.4 µM
- EC50 (MG-63 [2]; [27]): 28.4 µM
- inhibition [26]: Active

SMILES: Cc1ccc(-c2cc(-c3ccc(F)cc3)nc(SCC(=O)Nc3cccc(C)c3)c2C#N)cc1
- IC50 [1]: 3.4 µM
- EC50 (MG-63 [2]; [27]): 6.72 µM

SMILES: COc1ccc(-c2cc(-c3ccccc3)c(C#N)c(SCC(=O)Nc3cc(C)cc(C)c3)n2)cc1
- IC50 [1]: 6.59 µM
- EC50 (MG-63 [2]; [27]): 5.78 µM
